Experimental data as given in PMC10759609, “A novel PDPN antagonist peptide CY12-RP2 inhibits melanoma growth via Wnt/β-catenin and modulates the immune cells” (Journal of Experimental & Clinical Cancer Research : CR, 2024).
Peptide text beside a SMILES is read from it.

How the values were obtained:
[1] = molecular target: T1, PDPN recombinant proteins (Homo sapiens, UniProt Q86YL7); test: SPR assay, binding to immobilized PDPN; details: CM7 chip, 100 μM to 0.00128 μM
T1 construct: PDPN recombinant proteins were coated on the CM7 sensor chip
Experimental: SPR assay was conducted on a GE Biacore 3000 (Cytiva, USA) using a CM7 sensorchip for protein immobilization. All experimental steps were performed at a temperature of 24 °C and samples were kept at 4 °C. CY12-RP1 and CY12-RP2 peptides were diluted in the running buffer ([…] saline buffer, HBS-EP) at the final concentrations ranging from 100 μM to 0.00128 μM. The peptides were injected at a rate of 30 μL/min through immobilized PDPN for 240 s for association. All regenerations were introduced at a flow rate of 30 µL/min. SPR assay was performed in triplicate and the results were analyzed using Biacore 3000 software.
To further investigate the potential anti-tumor effect of PDPN antagonist on melanoma, we used a Ph.D.TM-12 Phage Display Peptide Library to screen for a PDPN antagonist peptide. After four rounds of biopanning under progressively stringent selection conditions in vitro, seven clones with individual amino acid sequences were obtained (Fig. 3A). To assess the anti-tumor effects of these seven peptides on melanoma cells, the proliferation of A375 and A875 cell lines after treating with various concentration peptides were examined by CCK8 assay. […] We then performed immunofluorescence, SPR assay, and flow cytometry to identify the binding specificity of CY12-RP1 and CY12-RP2 with PDPN in melanoma cells. […]

A375 cells = test: Transwell matrigel invasion, A375; format: cell-based; details: transwell matrigel, 0, 5, 25 μM, 48 h
Experimental: For invasion assay, matrigel (Corning, New York, USA) was coated on the upper surface of the upper chamber. The upper chamber was filled with DMEM medium containing 2% FBS, while the lower chamber contained a medium supplemented with 20% FBS. In brief, melanoma cells (A375 GFP, A875 GFP, A375 PDPN^−/−, and A875 PDPN^+/+ cells) were seeded in the upper chamber of the transwell plate (Corning, New York, USA) at about 5 × 10^4 cells/well with the medium as described above. For peptide functionality experiments, A375 and A875 cells were seeded in the upper chamber of the transwell plate at a density of 5 × 10^4 cells/well with various peptide concentrations (0 μM, 5 μM, 25 μM). Transwell inserts were fixed using 4% paraformaldehyde after 48 h cell invasion, and crystalline violet was used for staining. The quantities of invading cells were quantified using ImageJ software (NIH).

[2] = system: liver, heart, spleen, lung and kidney; details: mouse, in vivo
Experimental: For histopathological analysis, after BALB/c nude mice were sacrificed, organs (heart, liver, spleen, lung, and kidney) were collected and fixed in 4% paraformaldehyde for 24 h at RT. The fixed organs were then dehydrated and inserted in paraffin, and prepared in 2 µm sections. The prepared sections and experimental procedures were routinely carried out by Servicebio company.

[3] = system: A375 xenograft tumor cells; test: TUNEL immunofluorescence of xenograft tumors; format: in vivo, BALB/c nude mice
Experimental: Fig. S4: The inhibition of cells metastasis and invasion by CY12-RP2 can be […]
(A, B) The inhibition of CY12-RP2 on the migration capacity of melanoma cell lines was reversed by SKL2001 (A). Statistical analysis was performed to determine the migrated distance (B). The power field scale bar, 100 μm. (C, D) Effect of CY12-RP2 on the invasive ability of melanoma cell lines were reversed by SKL2001 (C).
Statistical analysis was performed to count the invaded cells (D). The power field scale bar, 100 μm. (E) Western blot assay was also performed to detect the proteins related to EMT and Wnt/β-catenin signaling pathway, including N-cadherin, Vimentin, snail, Dvl2, Phospho-β-catenin-S675, β-catenin, Phospho-GSK3β-Ser9 and GSK3β by CY12-RP2 with or without SKL2001 (50 μM). Data are presented as mean ± SD. *p < […]
Fig. S5: Effects and toxicity of CY12-RP2 in vivo
(A) TUNEL analysis of apoptosis was conducted on orthotopic xenografts tumor sections using fluorescence staining. The power field scale bar, 100 μm. (B) Fluorescence staining of Ki67 was carried out on orthotopic xenograft tumor sections.
The power field scale bar, 100 μm. (C) Serum His-CY12-RP2 levels of the orthotopic xenografts mice treated by various dosage of CY12-RP2 were measured by His-ELISA kit. […]
kit. (E) Serum ALT, AST, TG, and γ-GT levels of the orthotopic xenografts model were measured by ELISA. […]

T1 sequence (Q86YL7 23-162): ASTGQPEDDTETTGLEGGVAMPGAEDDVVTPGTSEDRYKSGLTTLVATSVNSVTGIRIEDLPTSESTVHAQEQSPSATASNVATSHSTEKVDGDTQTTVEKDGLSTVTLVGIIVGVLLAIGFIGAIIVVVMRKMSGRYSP

With `CC(C)C[C@H](NC(=O)[C@H](Cc1ccc(O)cc1)NC(=O)[C@@H](N)[C@@H](C)O)C(=O)N[C@@H](CS)C(=O)N[C@H](C(=O)N[C@@H](C)C(=O)N[C@@H](CS)C(=O)N[C@@H](CC(=O)O)C(=O)N[C@@H](Cc1ccc(O)cc1)C(=O)N[C@H](C(=O)N[C@@H](Cc1c[nH]cn1)C(=O)N[C@@H](Cc1c[nH]cn1)C(=O)O)[C@@H](C)O)[C@@H](C)O` [CY12-RP2] (H-TYLCTACDYTHH-OH; N-terminus and C-terminus assumed) the “binding to PDPN (in words)” value [1] was “bound to PDPN in a dose-dependent manner”, the invasion (A375 cells) was “significantly suppressed the invasion of A375 cells in a dose-dependent manner” and the “toxic effect on organs (overall)” value [2] was “slightly toxic effect”. The “apoptotic tumor cells (TUNEL)” value [3] was “more apoptotic tumor cells were detected”.
